According to patent US20160193216A1 (Nimbus Iris, Inc., priority 2012, published 2016):
Counter-ions that a name gives are not always drawn. Like-named read-outs stand apart in the source and are kept apart here.

Key:
IRAK4 = biological target: T1, IRAK4 (Homo sapiens, UniProt Q9NWZ3); assay: IRAK-4 activity inhibition assay (Caliper); assay type: biochemical; conditions: 37 μM ATP, 3.5 nM IRAK4
T1 sequence (Q9NWZ3 1-460): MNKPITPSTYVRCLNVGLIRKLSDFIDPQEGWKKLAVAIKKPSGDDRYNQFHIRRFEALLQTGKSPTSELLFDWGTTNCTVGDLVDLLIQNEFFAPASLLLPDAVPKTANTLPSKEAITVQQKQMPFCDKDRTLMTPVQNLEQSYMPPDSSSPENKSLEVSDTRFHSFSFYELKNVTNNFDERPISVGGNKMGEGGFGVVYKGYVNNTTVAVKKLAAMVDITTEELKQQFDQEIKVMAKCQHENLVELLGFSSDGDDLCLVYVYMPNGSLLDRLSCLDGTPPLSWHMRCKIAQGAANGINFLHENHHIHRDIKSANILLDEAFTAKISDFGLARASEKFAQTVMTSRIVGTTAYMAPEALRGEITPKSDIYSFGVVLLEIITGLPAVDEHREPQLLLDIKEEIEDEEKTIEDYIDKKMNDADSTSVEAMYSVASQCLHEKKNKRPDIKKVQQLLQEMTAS

THP-1 cells = assay: LPS induced cytokine (TNFα and IL8) production assay in THP-1 cells; assay type: cell-based; conditions: Homo sapiens, 300 ng/mL LPS
Protocol: Cytokine Production Assay
Provided compounds were also assayed in an LPS (Lipopolysacharide) or R848 (TLR-7 agonist) induced cytokine (TNFα and IL8) production assay in THP-1 cells, human peripheral blood mononuclear cells (hPBMC), and whole blood. The exemplary protocol for this assay in THP-1 cells was as follows below.
THP-1 cells from ATCC (TIB-202) were cultured in RPMI Medium 1640 (Invitrogen, Cat No. A10491-01), 10% fetal bovine serum (Invitrogen, Cat No. 10099141, Lot No. 8172882) containing 100 U/mL Penicillin, 100 μg/mL streptomycin (Invitrogen, Cat No. 15140-122), and 50 uM 2-Mercaptoethanol (Invitrogen, Cat No. 21985023). LPS-EK ultra pure (Invivogen, Cat No. tlrl-peklps) was used to induce IL8 and TNFα production, that was detected in the cell culture supernatant by IL8 HTRF kit (Cisbio, Cat No. 62IL8PEB) and TNFα HTRF kit (Cisbio, Cat No. 62TNFPEB), as per manufacturer instructions. Cells were cultured in 96 well assay plates at 100,000 cells per well, and compounds diluted in final 0.3% DMSO were pre-incubated with cells for 1 hour prior to stimulation with 300 ng/mL LPS. Cytokine production in cell supernatant was measured at 5 hours for TNFα and IL8 production, and for 16 hours for IL8 production and assessment of cell viability.
The compound numbers correspond to the compound numbers in Table 1. […] “NA” stands for “not assayed.”

| IC50 (IRAK4) [nM] | IC50 (THP-1 cells; read-out: TNFα production IC50) [nM] | IC50 (THP-1 cells; read-out: IL8 production IC50) [nM] | Structure (SMILES) |
| --- | --- | --- | --- |
| < 5000 | 1000 to 5000 |  | CN(C)[C@H]1CC[C@H](Oc2ncnc3sc4c(c23)CC(CCO)CC4)CC1 (stereo partly shown) [Compound I-108, 2-[3-[[4-(dimethylamino)cyclohexyl]oxy]-8-thia-4,6-diazatricyclo[7.4.0.0[2,7]]trideca-1(9),2(7),3,5-tetraen-12-yl]ethan-1-ol formate] |
| < 5000 | 500 to 1000 | ≤ 500 | CN(C)[C@H]1CC[C@H](Oc2ncnc3sc4c(c23)C[C@H](CCO)CC4)CC1 [Compound I-110, 2-[(12R)-3-[[4-(dimethylamino)cyclohexyl]oxy]-8-thia-4,6-diazatricyclo[7.4.0.0[2,7]]trideca-1(9),2(7),3,5-tetraen-12-yl]ethan-1-ol formate] |
| < 5000 | ≤ 500 | ≤ 500 | NC(=O)[C@@H](O)C[C@H]1CCc2sc3ncnc(N[C@H]4CC[C@H](N5CCOCC5)CC4)c3c21 [Compound I-120, (S)-2-hydroxy-3-((R)-4-(((1r,4R)-4-morpholinocyclohexyl)amino)-6,7-dihydro-5H-cycyclopenta[4,5]thieno[2,3-d]pyrimidin-5-yl)propanamide] |
| < 5000 | ≤ 500 | ≤ 500 | NC(=O)C(F)(F)C[C@H]1CCc2sc3ncnc(O[C@H]4CC[C@H](N5CCOCC5)CC4)c3c21 [Compound I-142, 2,2-difluoro-3-((R)-4-(((1r,4R)-4-morpholinocyclohexyl)oxy)-6,7-dihydro-5H-cyclopenta[4,5]thieno[2,3-d]pyrimidin-5-yl)propanamide] |
| < 5000 | 500 to 1000 | ≤ 500 | [2H]C1([2H])c2sc3ncnc(O[C@H]4CC[C@H](N5CCOCC5)CC4)c3c2[C@@H](CC(N)=O)C1([2H])[2H] [Compound I-188, 2-[(3R)-12-[[4-(morpholin-4-yl)cyclohexyl]oxy](4,4,5,5-d4)-7-thia-9, 11-diazatricyclo[6.4.0.0[2,6]]dodeca-1(8),2(6),9, 11-tetraen-3-yl]acetamide-d4] |
| < 5000 | 1000 to 5000 | 1000 to 5000 | NC(=O)[C@H]1CCc2sc3ncnc(N[C@H]4CC[C@H](N5CCOCC5)CC4)c3c2C1 [Compound I-207, (12S)-3-[[4-(morpholin-4-yl)cyclohexyl]amino]-8-thia-4,6-diazatricyclo[7.4.0.0[2,7]]trideca-1(9),2(7),3,5-tetraene-12-carboxamide] |
| < 5000 | ≤ 500 | ≤ 500 | NC(=O)C[C@H]1CCc2sc3ncnc(O[C@H]4CC[C@H](N5CCCCC5)CC4)c3c21 [Compound I-214, 2-[(3R)-12-[[4-(piperidin-1-yl)cyclohexyl]oxy]-7-thia-9,11-diazatricyclo[6.4.0.0[2,6]]dodeca-1(8),2(6),9,11-tetraen-3-yl]acetamide] |
| < 5000 | 500 to 1000 | 1000 to 5000 | OC[C@@H]1CCc2sc3ncnc(O[C@H]4CC[C@H](N5CCOCC5)CC4)c3c2C1 [Compound I-215, [(12R)-3-[[4-(morpholin-4-yl)cyclohexyl]oxy]-8-thia-4,6-diazatricyclo[7.4.0.0[2,7]]trideca-1(9),2(7),3,5-tetraen-12-yl]methanol] |
| < 5000 | ≤ 500 | ≤ 500 | NC(=O)[C@@H](O)C[C@H]1CCc2sc3ncnc(O[C@H]4CC[C@H](N5CCCCC5)CC4)c3c21 [Compound I-217, (S)-2-hydroxy-3-((R)-4-(((1r,4R)-4-(piperidin-1-yl)cyclohexyl)oxy)-6,7-dihydro-5H-cyclopenta[4,5]thieno[2,3-d]pyrimidin-5-yl)propanamide] |
| < 5000 | ≤ 500 | ≤ 500 | NC(=O)[C@H](O)C[C@H]1CCc2sc3ncnc(O[C@H]4CC[C@H](N5CCCC5)CC4)c3c21 [Compound I-228, (R)-2-hydroxy-3-((R)-4-(((1r,4R)-4-(pyrrolidin-1-yl)cyclohexyl)oxy)-6,7-dihydro-5H-cyclopenta[4,5]thieno[2,3-d]pyrimidin-5-yl)propanamide] |
| < 5000 | ≤ 500 | 500 to 1000 | NC(=O)C[C@H]1CCc2sc3ncnc(O[C@H]4CC[C@H](N5CCC(F)(F)CC5)CC4)c3c21 [Compound I-229, 2-[(3R)-12-[[4-(4,4-difluoropiperidin-1-yl)cyclohexyl]oxy]-7-thia-9,11-diazatricyclo[6.4.0.0[2,6]]dodeca-1(8),2(6),9, 11-tetraen-3-yl]acetamide] |

Continued, molecule first:

| Structure (SMILES) | IC50 (IRAK4) [nM] | IC50 (THP-1 cells; read-out: TNFα production IC50) [nM] | IC50 (THP-1 cells; read-out: IL8 production IC50) [nM] |
| --- | --- | --- | --- |
| C[C@@H](O)C[C@H]1CCc2sc3ncnc(O[C@H]4CC[C@H](N(C)CC(=O)N5CCCC5)CC4)c3c21 [Compound I-109, 2-[(4-[[(3R)-3-[(2R)-2-hydroxypropyl]-7-thia-9,11-diazatricyclo[6.4.0.0[2,6]]dodeca-1(8),2(6),9,11-tetraen-12-yl]oxy]cyclohexyl)(methyl)amino]-1-(pyrrolidin-1-yl)ethan-1-one] | < 5000 | 500 to 1000 |  |
| CN(CCc1ccccn1)[C@H]1CC[C@H](Oc2ncnc3sc4c(c23)[C@@H](CC(N)=O)CC4)CC1 [Compound I-128, 2-((R)-4-(((1 r,4R)-4-(methyl(2-(pyridin-2-yl)ethyl)amino)cyclohexyl)oxy)-6,7-dihydro-5H-cyclopenta[4,5]thieno[2,3-d]pyrimidin-5-yl)acetamide] | < 5000 | 1000 to 5000 | 500 to 1000 |
| NC(=O)[C@@H](O)C[C@H]1CCc2sc3ncnc(O[C@H]4CC[C@H](N)CC4)c3c21 [Compound I-135, (S)-3-((R)-4-(((1r,4R)-4-aminocyclohexyl)oxy)-6,7-dihydro-5H-cyclopenta[4,5]thieno[2,3-d]pyrimidin-5-yl)-2-hydroxypropanamide] | < 5000 | 500 to 1000 | 500 to 1000 |
| CCN[C@H]1CC[C@H](Oc2ncnc3sc4c(c23)[C@@H](C[C@H](O)C(N)=O)CC4)CC1 [Compound I-136, (2S)-3-[(3R)-12-[[4-(ethylamino)cyclohexyl]oxy]-7-thia-9,11-diazatricyclo[6.4.0.0[2,6]]dodeca-1(8),2(6),9,11-tetraen-3-yl]-2-hydroxypropanamide] | < 5000 | 500 to 1000 | ≤ 500 |
| CN[C@H]1CC[C@H](Oc2ncnc3sc4c(c23)[C@@H](C[C@H](O)C(N)=O)CC4)CC1 [Compound I-137, (2S)-2-hydroxy-3-[(3R)-12-[[4-(methylamino)cyclohexyl]oxy]-7-thia-9,11-diazatricyclo[6.4.0.0[2,6]]dodeca-1(8),2(6),9,11-tetraen-3-yl]propanamide] | < 5000 | 500 to 1000 | 500 to 1000 |
| CN(C)[C@H]1CC[C@H](Oc2ncnc3sc4c(c23)[C@@H](CC(F)(F)C(N)=O)CC4)CC1 [Compound I-144, 3-[(3R)-12-[[4-(dimethylamino)cyclohexyl]oxy]-7-thia-9,11-diazatricyclo[6.4.0.0[2,6]]dodeca-1(8),2(6),9,11-tetraen-3-yl]-2,2-difluoropropanamide] | < 5000 | ≤ 500 | ≤ 500 |
| CN(CC(=O)N1CCCC1)[C@H]1CC[C@H](Oc2ncnc3sc4c(c23)[C@@H](C[C@H](O)C(N)=O)CC4)CC1 [Compound I-149, (2S)-2-hydroxy-3-[(3R)-12-[(4-[methyl[2-oxo-2-(pyrrolidin-1-yl)ethyl]amino]cyclohexyl)oxy]-7-thia-9,11-diazatricyclo[6.4.0.0̂[2,6]]dodeca-1(8),2(6),9,11-tetraen-3-yl]propanamide] | < 5000 | 1000 to 5000 | 1000 to 5000 |
| CN(C)[C@H]1CC[C@H](Oc2ncnc3sc4c(c23)CN(S(C)(=O)=O)CC4)CC1 [Compound I-168, 4-([12-methanesulfonyl-8-thia-4,6,12-triazatricyclo[7.4.0.0-[2,7]]trideca-1(9),2(7),3,5-tetraen-3-yl]oxy)-N,N-dimethylcyclohexan-1-amine] | < 5000 | ≥ 5000 | ≥ 5000 |
| CN(C)[C@H]1CC[C@H](Nc2ncnc3sc4c(c23)CC(C)(C)OC4)CC1 [Compound I-194, 4-N-[12, 12-dimethyl-11-oxa-8-thia-4,6-diazatricyclo[7.4.0.0[2,7]]trideca-1(9),2(7),3,5-tetraen-3-yl]-1-N, 1-N-dimethylcyclohexane-1,4-diamine] | < 5000 | ≥ 5000 | 1000 to 5000 |
